Measurements: patent US8445707B1, “Compound, composition and uses thereof” (Krisani Biosciences (P) Ltd., priority 2012, dated 2013)
Like-named read-outs stand apart in the source and are kept apart here.

Experiment: Pharmacokinetics of KB-ND-002 compared to Cysteamine Hydrochloride and EPA in mouse plasma and brain after oral administration
Assay type: in vivo, male mice
Details: for maximum concentration of Cysteamine after dosing compared to endogenous levels in control group animals: analyte Cysteamine
Protocol: Method of Treatment, Testing and Results Using the Final Compound of formula 1 at Charles River Labs: Pharmacokinetics of KB-ND-002 compared to Cysteamine Hydrochloride and EPA in Mouse Plasma and Brain
Parameter estimation was performed on mean plasma and brain Eicosapentanoiec acid, KB-ND-002 and Cysteamine concentration vs nominal sampling time values from 3 animals per timepoint. Parameter estimates were derived for each analyte, and matrix using a non-compartmental approach in WinNonlin Enterprise version 5.2.1 (Pharsight Corp., Mountain View, Calif., USA) in accordance with Charles River standard operating procedures. A WinNonlin regression analysis was performed with each concentration vs time profile reviewed by means of visual inspection to appropriately characterise the apparent terminal elimination phase and optimise the reliability of the lambda-z estimation.
Following Oral Administration of KB-ND-002 (Formula 1), Cysteamine or Eicosapentanoiec Acid in Male Mice, Concentration Vs Time Profiles were Partially Evaluable for PK Purposes.

CC/C=C\C/C=C\C/C=C\C/C=C\C/C=C\CCCC(=O)O [Eicosapentanoiec acid]
systemic exposure to Eicosapentanoiec acid, comparison between groups (112 mg/kg Eicosapentanoiec acid administered): greatest | maximum concentration of Eicosapentanoiec acid after dosing compared to endogenous levels in control group animals (analyte Eicosapentanoiec acid, plasma, oral, male mice): over 20 fold | Tmax (male, mouse, brain, Group 5, 112 mg/kg Eicosapentanoiec acid oral, read-out: time of peak concentration of Eicosapentanoiec acid (Tmax)): 60 min | Tmax (male, mouse, plasma, Group 5, 112 mg/kg Eicosapentanoiec acid oral, read-out: time of peak concentration of Eicosapentanoiec acid (Tmax)): 60 min | Eicosapentanoiec acid concentrations quantifiable over sampling period (plasma and brain, sampling duration 5 h): quantifiable for the entire duration of sampling

CC/C=C\C/C=C\C/C=C\C/C=C\C/C=C/CCCC(=O)NCCSC(C)=O [KB-ND-002]
Kp (male, mouse, brain and plasma, oral, brain at highest dose vs plasma after low dose (60 mg/kg), read-out: systemic exposure to KB-ND-002 in brain relative to plasma): < 0.01 | dose proportionality based on dose normalised estimates of Cmax and AUC(0-t) (plasma, oral KB-ND-002): sub-proportional

NCCS [Cysteamine]
systemic exposure to Cysteamine, comparison between groups (112 mg/kg Cysteamine administered): greatest | maximum concentration of Cysteamine after dosing compared to endogenous levels in control group animals (brain, oral, male mice): up to 10 fold | maximum concentration of Cysteamine after dosing compared to endogenous levels in control group animals (plasma, oral, male mice): over 400 fold | Cysteamine concentrations quantifiable over sampling period (brain, sampling duration 5 h): quantifiable for the entire duration of sampling | Tmax (male, mouse, brain, Group 4, 112 mg/kg Cysteamine oral, read-out: time of peak concentration of Cysteamine (Tmax)): 30 min | Tmax (male, mouse, plasma, Group 4, 112 mg/kg Cysteamine oral, read-out: time of peak concentration of Cysteamine (Tmax)): 4.8 min | Cysteamine concentrations observed over sampling period (plasma, only following administration of Cysteamine (Group 4)): only consistently observed for the entire duration of sampling
